According to US10874743B2, “IRAK degraders and uses thereof” (Kymera Therapeutics, Inc., priority 2017, dated 2020):
Values joined by “and” are separate entries in the source; they are usually repeats but may differ in a detail not shown here. Equal entries are not always repeated. Where two headings read alike, the source gives them in different places.

Assay: Pharmacokinetics in Sprague Dawley rats (plasma and brain concentrations, PK parameters)
Assay type: in vivo
Conditions: for Concentration Rat 4 / Concentration Rat 5 / Concentration Rat 6: po 10 mg/kg
Description: Pharmacokinetics for I-127, I-172 and I-210 were determined in Sprague Dawley rats or CD-1 mice by dosing intravenous (IV), subcutaneous (SC) or per oral (PO) using facility SOPs and sampling plasma at required time points. Species, formulation, route of administration and time points samples are listed below for each compound.
Compounds were extracted from plasma, injected on reverse phase HPLC, eluted with a gradient from 5% to 95% acetonitrile in water and quantified by mass spectrometry with internal standard. Data are expressed in ng compound per mL of plasma.

[1] = Rat (Sprague Dawley) po 10 mg/kg, Mean
[2] = Rat (Sprague Dawley) po 10 mg/kg, individual Rat 4-6, 10 mg/kg
[3] = Sprague Dawley rat, iv 3 mg/kg, Rat 1
[4] = Sprague Dawley rat, iv 3 mg/kg, Rat 2
[5] = Sprague Dawley rat, iv 3 mg/kg, Rat 3
[6] = Sprague Dawley rat, iv 3 mg/kg, mean of 3 rats
[7] = Sprague Dawley rat, plasma, 0 h
[8] = Sprague Dawley rat, plasma, 24 h

O=C1CCC(N2C(=O)c3cccc(NCCOCCOCCNCc4ccc(-n5cc(NC(=O)c6coc(-c7ccnc(NCC8CC8)c7)n6)c(C(F)F)n5)cc4)c3C2=O)C(=O)N1 (stereo not drawn) [I-210, 2-[2-(Cyclopropylmethylamino)-4-pyridyl]-N-[3-(difluoromethyl)-1-[4-[[2-[2-[2-[[2-(2,6-dioxo-3-piperidyl)-1,3-dioxoisoindolin-4-yl]amino]ethoxy]ethoxy]ethylamino]methyl]phenyl]pyrazol-4-yl]oxazole-4-carboxamide]
brain Detected Conc. (Rat (Sprague Dawley) iv 3 mg/kg (IVB), brain homogenate 1:2 in PBS, 0.083 h, Group 1, Group 2, 3 mg/kg): 11.8 ng/mL | brain Detected Conc. (Rat (Sprague Dawley) iv 3 mg/kg (IVB), brain homogenate 1:2 in PBS, 0.25 h, Group 1, Group 2, 3 mg/kg): 12.9 ng/mL | brain Detected Conc. (Rat (Sprague Dawley) iv 3 mg/kg (IVB), brain homogenate 1:2 in PBS, 1 h, Group 1, Group 2, 3 mg/kg): 17.5 ng/mL | brain Detected Conc. (Rat (Sprague Dawley) iv 3 mg/kg (IVB), brain homogenate 1:2 in PBS, 4 h, Group 1, Group 2, 3 mg/kg): 12.4 ng/mL | brain Actual Conc. (Rat (Sprague Dawley) iv 3 mg/kg (IVB), brain, 0.083 h, Group 1, Group 2, detected value multiplied by 3, 3 mg/kg): 35.4 ng/g | brain Actual Conc. (Rat (Sprague Dawley) iv 3 mg/kg (IVB), brain, 0.25 h, Group 1, Group 2, detected value multiplied by 3, 3 mg/kg): 38.7 ng/g | brain Actual Conc. (Rat (Sprague Dawley) iv 3 mg/kg (IVB), brain, 1 h, Group 1, Group 2, detected value multiplied by 3, 3 mg/kg): 52.5 ng/g | brain Actual Conc. (Rat (Sprague Dawley) iv 3 mg/kg (IVB), brain, 4 h, Group 1, Group 2, detected value multiplied by 3, 3 mg/kg): 37.2 ng/g | AUC_%Extrap_obs [1]: 42.3% | AUClast/D [1]: 1.52 kg·ng·h/mL/mg | F [1]: 0.385% | AUC_%Extrap_obs [2]: 33.5% and 48.7% and 44.8% | AUClast [2]: 17.7 ng·h/mL and 21.1 ng·h/mL and 6.66 ng·h/mL | Cmax [2]: 3.50 ng/mL and 4.02 ng/mL and 1.20 ng/mL | F [2]: 0.450% and 0.536% and 0.169% | MRTInf_obs [2]: 10.2 h and 9.35 h | T1/2 [2]: 5.65 h and 5.28 h | AUC_%Extrap_obs Rat 1 [3]: 0.140% | AUClast/D Rat 1 [3]: 414 kg·ng·h/mL/mg | Cl_obs Rat 1 [3]: 40.2 mL/min/kg | Vss_obs Rat 1 [3]: 7.85 L/kg | AUC_%Extrap_obs Rat 2 [4]: 0.183% | AUClast/D Rat 2 [4]: 403 kg·ng·h/mL/mg | Cl_obs Rat 2 [4]: 41.2 mL/min/kg | Vss_obs Rat 2 [4]: 7.79 L/kg | AUC_%Extrap_obs Rat 3 [5]: 0.185% | AUClast/D Rat 3 [5]: 364 kg·ng·h/mL/mg | Cl_obs Rat 3 [5]: 45.7 mL/min/kg | Vss_obs Rat 3 [5]: 8.00 L/kg | AUC_%Extrap_obs Mean [6]: 0.169% | AUClast/D Mean [6]: 394 kg·ng·h/mL/mg | Cl obs Mean [6]: 42 mL/min/kg | Vss_obs Mean [6]: 7.88 L/kg | Concentration Rat 1 (Sprague Dawley rat, iv 3 mg/kg, plasma, 0 h, Rat 1): BLOQ | Concentration Rat 2 (Sprague Dawley rat, iv 3 mg/kg, plasma, 0 h, Rat 2): BLOQ | Concentration Rat 3 (Sprague Dawley rat, iv 3 mg/kg, plasma, 0 h, Rat 3): BLOQ | Concentration Rat 4 [7]: BLOQ | Concentration Rat 5 [7]: BLOQ | Concentration Rat 6 [7]: BLOQ | Concentration Rat 4 [8]: BLOQ | Concentration Rat 5 [8]: BLOQ | Concentration Rat 6 [8]: BLOQ | concentration at 0.083 h (Sprague Dawley, rat, brain homogenate, iv, 3 mg/kg, Rat (Sprague Dawley) iv 3 mg/kg (IVB), brain homogenate 1:2 in PBS, 0.083 h, Group 1, Group 2, read-out: brain Detected Conc.): 17.2 ng/mL | concentration at 0.25 h (Sprague Dawley, rat, brain homogenate, iv, 3 mg/kg, Rat (Sprague Dawley) iv 3 mg/kg (IVB), brain homogenate 1:2 in PBS, 0.25 h, Group 1, Group 2, read-out: brain Detected Conc.): 13.2 ng/mL | concentration at 1 h (Sprague Dawley, rat, brain homogenate, iv, 3 mg/kg, Rat (Sprague Dawley) iv 3 mg/kg (IVB), brain homogenate 1:2 in PBS, 1 h, Group 1, Group 2, read-out: brain Detected Conc.): 13.3 ng/mL | concentration at 4 h (Sprague Dawley, rat, brain homogenate, iv, 3 mg/kg, Rat (Sprague Dawley) iv 3 mg/kg (IVB), brain homogenate 1:2 in PBS, 4 h, Group 1, Group 2, read-out: brain Detected Conc.): 14.2 ng/mL | concentration at 0.083 h (Sprague Dawley, rat, brain, iv, 3 mg/kg, Rat (Sprague Dawley) iv 3 mg/kg (IVB), brain, 0.083 h, Group 1, Group 2, detected value multiplied by 3, read-out: brain Actual Conc.): 51.6 ng/g | concentration at 0.083 h (Sprague Dawley, rat, brain, iv, 3 mg/kg, Rat (Sprague Dawley) iv 3 mg/kg (IVB), brain, 0.083 h, Mean, read-out: brain Actual Conc.): 43.5 ng/g | concentration at 0.25 h (Sprague Dawley, rat, brain, iv, 3 mg/kg, Rat (Sprague Dawley) iv 3 mg/kg (IVB), brain, 0.25 h, Group 1, Group 2, detected value multiplied by 3, read-out: brain Actual Conc.): 39.6 ng/g | concentration at 0.25 h (Sprague Dawley, rat, brain, iv, 3 mg/kg, Rat (Sprague Dawley) iv 3 mg/kg (IVB), brain, 0.25 h, Mean, read-out: brain Actual Conc.): 39.2 ng/g | concentration at 1 h (Sprague Dawley, rat, brain, iv, 3 mg/kg, Rat (Sprague Dawley) iv 3 mg/kg (IVB), brain, 1 h, Group 1, Group 2, detected value multiplied by 3, read-out: brain Actual Conc.): 39.9 ng/g | concentration at 1 h (Sprague Dawley, rat, brain, iv, 3 mg/kg, Rat (Sprague Dawley) iv 3 mg/kg (IVB), brain, 1 h, Mean, read-out: brain Actual Conc.): 46.2 ng/g | AUC(0-inf) (Sprague Dawley, rat, plasma, iv, 3 mg/kg, Sprague Dawley rat, iv 3 mg/kg, Rat 1, read-out: AUCInf Rat 1): 1240 ng·h/mL | AUC(0-t) (Sprague Dawley, rat, plasma, iv, 3 mg/kg, Sprague Dawley rat, iv 3 mg/kg, Rat 1, read-out: AUClast Rat 1): 1240 ng·h/mL | C0 (Sprague Dawley, rat, plasma, iv, 3 mg/kg, Sprague Dawley rat, iv 3 mg/kg, Rat 1, read-out: C0 Rat 1): 873 ng/mL | half-life (Sprague Dawley, rat, plasma, iv, 3 mg/kg, Sprague Dawley rat, iv 3 mg/kg, Rat 1, read-out: T1/2 Rat 1 (converted)): 2.66 h | AUC(0-inf) (Sprague Dawley, rat, plasma, iv, 3 mg/kg, Sprague Dawley rat, iv 3 mg/kg, Rat 2, read-out: AUCInf Rat 2): 1210 ng·h/mL | AUC(0-t) (Sprague Dawley, rat, plasma, iv, 3 mg/kg, Sprague Dawley rat, iv 3 mg/kg, Rat 2, read-out: AUClast Rat 2): 1210 ng·h/mL | C0 (Sprague Dawley, rat, plasma, iv, 3 mg/kg, Sprague Dawley rat, iv 3 mg/kg, Rat 2, read-out: C0 Rat 2): 814 ng/mL | half-life (Sprague Dawley, rat, plasma, iv, 3 mg/kg, Sprague Dawley rat, iv 3 mg/kg, Rat 2, read-out: T1/2 Rat 2 (converted)): 2.83 h | AUC(0-inf) (Sprague Dawley, rat, plasma, iv, 3 mg/kg, Sprague Dawley rat, iv 3 mg/kg, Rat 3, read-out: AUCInf Rat 3): 1090 ng·h/mL | AUC(0-t) (Sprague Dawley, rat, plasma, iv, 3 mg/kg, Sprague Dawley rat, iv 3 mg/kg, Rat 3, read-out: AUClast Rat 3): 1090 ng·h/mL | C0 (Sprague Dawley, rat, plasma, iv, 3 mg/kg, Sprague Dawley rat, iv 3 mg/kg, Rat 3, read-out: C0 Rat 3): 855 ng/mL | half-life (Sprague Dawley, rat, plasma, iv, 3 mg/kg, Sprague Dawley rat, iv 3 mg/kg, Rat 3, read-out: T1/2 Rat 3 (converted)): 2.88 h | AUC(0-inf) (Sprague Dawley, rat, plasma, iv, 3 mg/kg, Sprague Dawley rat, iv 3 mg/kg, mean of 3 rats, read-out: AUCInf Mean): 1180 ng·h/mL | AUC(0-t) (Sprague Dawley, rat, plasma, iv, 3 mg/kg, Sprague Dawley rat, iv 3 mg/kg, mean of 3 rats, read-out: AUClast Mean): 1180 ng·h/mL | C0 (Sprague Dawley, rat, plasma, iv, 3 mg/kg, Sprague Dawley rat, iv 3 mg/kg, mean of 3 rats, read-out: C0 Mean): 848 ng/mL | half-life (Sprague Dawley, rat, plasma, iv, 3 mg/kg, Sprague Dawley rat, iv 3 mg/kg, mean of 3 rats, read-out: T1/2 Mean (converted)): 2.79 h | AUC(0-inf) (Sprague Dawley, rat, plasma, po, 10 mg/kg, Rat (Sprague Dawley) po 10 mg/kg, Mean, read-out: AUCInf): 26.6 ng·h/mL
